Laboratory results taken from US10155743B2, “Glutarimide derivatives, use thereof, pharmaceutical composition based thereon and methods for producing glutarimide derivatives” (OBSCHESTVO S OGRANICHENNOI OTVETSTVENNOSTIYU …, priority 2013, dated 2018).
Like-named read-outs stand apart in the source and are kept apart here.

Test system: human virus hRSV adapted to the growth in mouse lungs
Assay: animal or person
Assay type: in vivo
Details: for Body weight of the mice after infection with hRSV, Day 5 / Body weight of the mice after infection with hRSV, Day 7: 30 mg/kg orally once daily for 5 days from 24 h after infection, M ± SD, n = 6; for hRSV viral titer in mouse lungs, Day 5, lg / hRSV viral titer in mouse lungs, Day 7, lg: 30 mg/kg orally once daily for 5 days, 10% lung suspension titrated in Hep-2 cell culture, TCID; for log reduction at 30 mg/kg: human respiratory syncytial virus, po, 120 h
[1] = read-out: Suppression of the reproduction of hRSV virus in mouse lungs, Day 5, Δlg
[2] = read-out: Suppression of the reproduction of hRSV virus in mouse lungs, Day 7, Δlg

`O=C1CCCC(=O)N1CCc1cnc[nH]1` [Compound 1, 1-(2-(1H-imidazol-4-yl)ethyl)piperidine-2,6-dione] was tested. Which “Body weight of the mice after infection with hRSV, Day 5” value (“Body weight of the mice … Day 5” below) did it give?
Its value is 16.43 ± 0.14.

And the “Body weight of the mice after infection with hRSV, Day 7” value (shortened to “Body weight of the mice … Day 7”)?
The value was 17.98 ± 0.26.

What about the “hRSV viral titer in mouse lungs, Day 5, lg” value (“hRSV viral titer … Day 5, lg” for short) of the same compound?
The value was 2.88 ± 0.59 lg.

And the “hRSV viral titer in mouse lungs, Day 7, lg” value (shortened to “hRSV viral titer … Day 7, lg”)?
The value was 1.46 ± 0.17 lg.

What about the log reduction at 30 mg/kg [1] of the same compound?
The log reduction at 30 mg/kg was 1.73 ± 0.59.

And the log reduction at 30 mg/kg [2]?
Its log reduction at 30 mg/kg is 2.34 ± 0.17.

What does the source list for `O=C1CCCC(=O)N1CCc1nc2ccccc2[nH]1` [Compound 124]?
Body weight of the mice after infection with hRSV, Day 5: 16.43 ± 0.26; Body weight of the mice after infection with hRSV, Day 7: 16.37 ± 0.43; hRSV viral titer in mouse lungs, Day 5, lg: 2.46 ± 0.22 lg; hRSV viral titer in mouse lungs, Day 7, lg: 0.83 ± 0.37 lg; log reduction at 30 mg/kg [1]: 2.14 ± 0.22; log reduction at 30 mg/kg [2]: 2.97 ± 0.37

`Cn1cnc(CCN2C(=O)CCCC2=O)c1` [Compound 5] was tested. Which “Body weight of the mice … Day 5” value did it give?
The value was 16.02 ± 0.16.

What about the “Body weight of the mice … Day 7” value of the same compound?
The value was 17.78 ± 0.26.

And the “hRSV viral titer … Day 5, lg” value?
The value was 2.17 ± 0.37 lg.

And the “hRSV viral titer … Day 7, lg” value?
Its value is 0.88 ± 0.31 lg.

What about the log reduction at 30 mg/kg [1] of the same compound?
The log reduction at 30 mg/kg was 2.43 ± 0.37.

And the log reduction at 30 mg/kg [2]?
The log reduction at 30 mg/kg was 2.93 ± 0.31.

What does the source list for `O=C1CCCC(=O)N1CCC1CCNC1` (stereo not shown) [Compound 120]?
Body weight of the mice after infection with hRSV, Day 5: 16.12 ± 0.27; Body weight of the mice after infection with hRSV, Day 7: 17.22 ± 0.20; hRSV viral titer in mouse lungs, Day 5, lg: 3.04 ± 0.47 lg; hRSV viral titer in mouse lungs, Day 7, lg: 1.50 ± 0.25 lg; log reduction at 30 mg/kg [1]: 1.56 ± 0.47; log reduction at 30 mg/kg [2]: 2.05 ± 0.25

Which results are given for `O=C1CCCC(=O)N1CCC1CCNCC1` [Compound 123]?
Body weight of the mice after infection with hRSV, Day 5: 15.87 ± 0.20; Body weight of the mice after infection with hRSV, Day 7: 17.55 ± 0.53; hRSV viral titer in mouse lungs, Day 5, lg: 2.50 ± 0.43 lg; hRSV viral titer in mouse lungs, Day 7, lg: 1.33 ± 0.19 lg; log reduction at 30 mg/kg [1]: 2.1 ± 0.43; log reduction at 30 mg/kg [2]: 2.62 ± 0.5

What does the source list for `O=C1CCCC(=O)N1CCC1CCCNC1` (stereo not shown) [Compound 121]?
Body weight of the mice after infection with hRSV, Day 5: 16.35 ± 0.20; Body weight of the mice after infection with hRSV, Day 7: 17.38 ± 0.29; hRSV viral titer in mouse lungs, Day 5, lg: 3.08 ± 0.47 lg; hRSV viral titer in mouse lungs, Day 7, lg: 1.50 ± 0.14 lg; log reduction at 30 mg/kg [1]: 1.52 ± 0.47; log reduction at 30 mg/kg [2]: 2.09 ± 0.22

Which “Body weight of the mice … Day 5” value does the source give for `CC1(C)CC(=O)N(CCc2cnc[nH]2)C(=O)C1` [Compound 3] here?
Its value is 16.65 ± 0.28.

What about the “Body weight of the mice … Day 7” value of the same compound?
The value was 17.32 ± 0.25.

What about the “hRSV viral titer … Day 5, lg” value of the same compound?
Its value is 3.04 ± 0.42 lg.

What about the “hRSV viral titer … Day 7, lg” value of the same compound?
The value was 1.46 ± 0.17 lg.

And the log reduction at 30 mg/kg [1]?
Its log reduction at 30 mg/kg is 1.56 ± 0.42.

What about the log reduction at 30 mg/kg [2] of the same compound?
The log reduction at 30 mg/kg was 2.18 ± 0.28.

`O=C1CCCC(=O)N1CCN1CCOCC1` [Compound 117] was tested. Which “Body weight of the mice … Day 5” value did it give?
Its value is 16.07 ± 0.12.

What about the “Body weight of the mice … Day 7” value of the same compound?
Its value is 16.48 ± 0.28.

And the “hRSV viral titer … Day 5, lg” value?
The value was 3.00 ± 0.41 lg.

And the “hRSV viral titer … Day 7, lg” value?
Its value is 1.46 ± 0.24 lg.

And the log reduction at 30 mg/kg [1]?
Its log reduction at 30 mg/kg is 1.6 ± 0.41.

What about the log reduction at 30 mg/kg [2] of the same compound?
Its log reduction at 30 mg/kg is 2.22 ± 0.34.

How did the “Body weight of the mice … Day 5” value turn out when `O=C1CCCC(=O)N1CCc1ncc[nH]1` [Compound 8] was run?
Its value is 15.18 ± 0.18.

What about the “Body weight of the mice … Day 7” value of the same compound?
Its value is 17.13 ± 0.27.

What does the source list for `O=C1CCCC(=O)N1CCC1CCCN1` (stereo not shown) [Compound 4]?
Body weight of the mice after infection with hRSV, Day 5: 16.77 ± 0.20; Body weight of the mice after infection with hRSV, Day 7: 17.08 ± 0.32; hRSV viral titer in mouse lungs, Day 5, lg: 2.58 ± 0.51 lg; hRSV viral titer in mouse lungs, Day 7, lg: 1.38 ± 0.24 lg; log reduction at 30 mg/kg [1]: 2.02 ± 0.51; log reduction at 30 mg/kg [2]: 2.58 ± 0.53

How did the “Body weight of the mice … Day 5” value turn out when `O=C1CCCC(=O)N1CCc1nccs1` [Compound 6] was run?
Its value is 16.47 ± 0.26.

And the “Body weight of the mice … Day 7” value?
The value was 17.02 ± 0.29.

`O=C1CCCC(=O)N1CCc1cccnc1` [Compound 10, 1-[2-(1H-pyridyl-3-yl)ethyl]piperidine-2,6-dione] was tested. Which “Body weight of the mice … Day 5” value did it give?
Its value is 16.18 ± 0.29.

And the “Body weight of the mice … Day 7” value?
Its value is 16.53 ± 0.20.

`O=C1CCCC(=O)N1CCc1ccncc1` [Compound 9] was tested. Which “Body weight of the mice … Day 5” value did it give?
The value was 15.75 ± 0.33.

What about the “Body weight of the mice … Day 7” value of the same compound?
Its value is 16.18 ± 0.29.

`O=C1CCCC(=O)N1CCC1CCCCN1` (stereo not shown) [Compound 122] was tested. Which “Body weight of the mice … Day 5” value did it give?
Its value is 16.93 ± 0.32.

And the “Body weight of the mice … Day 7” value?
Its value is 16.37 ± 0.21.

What about the “hRSV viral titer … Day 5, lg” value of the same compound?
The value was 3.04 ± 0.44 lg.

And the “hRSV viral titer … Day 7, lg” value?
Its value is 1.75 ± 0.41 lg.

What about the log reduction at 30 mg/kg [1] of the same compound?
Its log reduction at 30 mg/kg is 1.56 ± 0.44.

And the log reduction at 30 mg/kg [2]?
Its log reduction at 30 mg/kg is 1.88 ± 0.47.

For `O=C1CCCC(=O)N1CCc1nc2ccccc2s1` [Compound 7, 1-[2-(1H-benzothiazol-2-yl)ethyl]piperidine-2-dione], which “Body weight of the mice … Day 5” value is on record?
The value was 17.17 ± 0.26.

What about the “Body weight of the mice … Day 7” value of the same compound?
Its value is 18.53 ± 0.55.
